Experiments:
Type in all cases: functional
OVCAR-5 = test: Growth inhibition of human OVCAR5 cells after 48 hrs by SRB assay; details: OVCAR-5, 48 h
ACHN = test: Growth inhibition of human ACHN cells after 48 hrs by SRB assay
Malme-3M = test: Growth inhibition of human MALME-3M cells after 48 hrs by SRB assay
MDA-MB-435 = test: Growth inhibition of human MDA-MB-435 cells after 48 hrs by SRB assay; details: MDA-MB-435, 48 h
HOP-92 = test: Growth inhibition of human HOP92 cells after 48 hrs by SRB assay; details: HOP-92, 48 h
SK-OV-3 = test: Growth inhibition of human SKOV3 cells after 48 hrs by SRB assay; details: SK-OV-3, 48 h
UACC-257 = test: Growth inhibition of human UACC257 cells after 48 hrs by SRB assay; details: UACC-257, 48 h
LOX IMVI = test: Growth inhibition of human LOXIMVI cells after 48 hrs by SRB assay
EKVX = test: Growth inhibition of human EKVX cells after 48 hrs by SRB assay
PC-3 = test: Growth inhibition of human PC3 cells after 48 hrs by SRB assay; details: PC-3, 48 h
MDA-MB-231 = test: Growth inhibition of human MDA-MB-231 cells after 48 hrs by SRB assay; details: MDA-MB-231, 48 h
K562 [1] = test: Growth inhibition of human K562 cells after 48 hrs by SRB assay; details: K562, 48 h
NCI-H522 = test: Growth inhibition of human NCI-H522 cells after 48 hrs by SRB assay; details: NCI-H522, 48 h
HCT-116 = test: Growth inhibition of human HCT116 cells after 48 hrs by SRB assay; details: HCT-116, 48 h
BT-549 = test: Growth inhibition of human BT549 cells after 48 hrs by SRB assay; details: BT-549, 48 h
SNB-75 = test: Growth inhibition of human SNB75 cells after 48 hrs by SRB assay; details: SNB-75, 48 h
NCI-H226 = test: Growth inhibition of human NCI-H226 cells after 48 hrs by SRB assay; details: NCI-H226, 48 h
[2] = Growth inhibition of human NCI-ADR-RES cells after 48 hrs by SRB assay
NCI-H23 = test: Growth inhibition of human NCI-H23 cells after 48 hrs by SRB assay; details: NCI-H23, 48 h
IGROV-1 = test: Growth inhibition of human IGROV1 cells after 48 hrs by SRB assay; details: IGROV-1, 48 h
U-251 = test: Growth inhibition of human U251 cells after 48 hrs by SRB assay; details: U-251, 48 h
SW-620 = test: Growth inhibition of human SW620 cells after 48 hrs by SRB assay; details: SW-620, 48 h
MDA-MB-468 = test: Growth inhibition of human MDA-MB-468 cells after 48 hrs by SRB assay; details: MDA-MB-468, 48 h
DU-145 = test: Growth inhibition of human DU145 cells after 48 hrs by SRB assay; details: DU-145, 48 h
UO-31 = test: Growth inhibition of human UO31 cells after 48 hrs by SRB assay; details: UO-31, 48 h
CAKI-1 = test: Growth inhibition of human Caki1 cells after 48 hrs by SRB assay; details: CAKI-1, 48 h
SF-268 = test: Growth inhibition of human SF268 cells after 48 hrs by SRB assay; details: SF-268, 48 h
786-0 = test: Growth inhibition of human 786-0 cells after 48 hrs by SRB assay; details: 786-0, 48 h
MCF7 = test: Growth inhibition of human MCF7 cells after 48 hrs by SRB assay; details: MCF7, 48 h
COLO 205 = test: Growth inhibition of human COLO205 cells after 48 hrs by SRB assay; details: COLO 205, 48 h
SN12C = test: Growth inhibition of human SN12C cells after 48 hrs by SRB assay
T47D = test: Growth inhibition of human T47D cells after 48 hrs by SRB assay
K562 [3] = test: Growth inhibition of human K562 cells assessed as cell growth at 10^-5 M after 48 hrs by SRB assay; details: K562, 48 h, read-out: Activity
[4] = read-out: LC50 (the source's name)

## O=C(CO[N+](=O)[O-])Nc1ccc(C(=O)/C=C/c2ccc(Cl)cc2)cc1
OVCAR-5
  GI50: 14.8 µM
  TGI: 36 µM
OVCAR-5; [4]
  CC50: 87.8 µM
ACHN
  GI50: 3.3 µM
  TGI: 17 µM
ACHN; [4]
  CC50: > 100 µM
Malme-3M
  GI50: 2.13 µM
  TGI: 6.61 µM
Malme-3M; [4]
  CC50: 76.2 µM
MDA-MB-435
  GI50: 2.96 µM
  TGI: 11.2 µM
MDA-MB-435; [4]
  CC50: 59 µM
HOP-92
  GI50: 2.95 µM
  TGI: 15.2 µM
HOP-92; [4]
  CC50: 53.2 µM
SK-OV-3
  GI50: 10.1 µM
  TGI: 65.9 µM
SK-OV-3; [4]
  CC50: > 100 µM
UACC-257
  GI50: 4.33 µM
  TGI: 15.9 µM
UACC-257; [4]
  CC50: 40.7 µM
LOX IMVI
  GI50: 1.59 µM
  TGI: 3.51 µM
LOX IMVI; [4]
  CC50: 7.74 µM
EKVX
  GI50: 15 µM
  TGI: 74.6 µM
EKVX; [4]
  CC50: > 100 µM
PC-3
  GI50: 2.74 µM
  TGI: 14.8 µM
PC-3; [4]
  CC50: 72.9 µM
MDA-MB-231
  GI50: 5.39 µM
  TGI: 21.2 µM
MDA-MB-231; [4]
  CC50: 62 µM
K562 [1]
  GI50: 2.6 µM
  TGI: > 100 µM
K562 [1]; [4]
  CC50: > 100 µM
NCI-H522
  GI50: 2.31 µM
  TGI: 8.37 µM
NCI-H522; [4]
  CC50: 32.8 µM
HCT-116
  GI50: 0.3 µM
  TGI: 1.09 µM
HCT-116; [4]
  CC50: 3.55 µM
BT-549
  GI50: 1.86 µM
  TGI: 5 µM
BT-549; [4]
  CC50: > 100 µM
SNB-75
  GI50: 3.19 µM
  TGI: 17.6 µM
SNB-75; [4]
  CC50: 47.6 µM
NCI-H226
  GI50: 5.15 µM
  TGI: 29 µM
NCI-H226; [4]
  CC50: > 100 µM
[2]
  GI50: 3.87 µM
  TGI: > 100 µM
[2]; [4]
  CC50: > 100 µM
NCI-H23
  GI50: 4.55 µM
  TGI: 22.1 µM
NCI-H23; [4]
  CC50: 81.1 µM
IGROV-1
  GI50: 13.4 µM
  TGI: 30 µM
IGROV-1; [4]
  CC50: 67.4 µM
U-251
  GI50: 1.48 µM
  TGI: 3.15 µM
U-251; [4]
  CC50: 6.68 µM
SW-620
  GI50: 1.44 µM
  TGI: 2.88 µM
SW-620; [4]
  CC50: 5.77 µM
MDA-MB-468
  GI50: 2.06 µM
  TGI: 5.07 µM
MDA-MB-468; [4]
  CC50: 17.1 µM
DU-145
  GI50: 3.41 µM
  TGI: 13.5 µM
DU-145; [4]
  CC50: 36.7 µM
UO-31
  GI50: 1.52 µM
  TGI: 12.1 µM
UO-31; [4]
  CC50: 38.5 µM
CAKI-1
  GI50: 11.8 µM
  TGI: 54.5 µM
CAKI-1; [4]
  CC50: > 100 µM
SF-268
  GI50: 2.62 µM
  TGI: 11.7 µM
SF-268; [4]
  CC50: 38 µM
786-0
  GI50: 11.6 µM
  TGI: 48 µM
786-0; [4]
  CC50: > 100 µM
MCF7
  GI50: 0.67 µM
  TGI: 6.44 µM
MCF7; [4]
  CC50: > 100 µM
COLO 205
  GI50: 2.57 µM
  TGI: 6.09 µM
COLO 205; [4]
  CC50: 21.1 µM
SN12C
  GI50: 3.15 µM
  TGI: 14.1 µM
SN12C; [4]
  CC50: 49.6 µM
T47D
  GI50: 3.26 µM
  TGI: 14.9 µM
T47D; [4]
  CC50: 58.3 µM

## O=C(CO[N+](=O)[O-])Nc1ccc(C(=O)/C=C/c2ccc3c(c2)OCO3)cc1
K562 [3]
  growth at 10 µM: 59.1%

Reference: ChEMBL document CHEMBL2040759, “Design, synthesis and anticancer activity of nitric oxide donating/chalcone hybrids” (2012)
